{
  "source": "patent US20220039384A1",
  "about": "“SELECTIVE WEED CONTROL WITH HALAUXIFEN OR 4-AMINO-3-CHLORO-5-FLUORO-6-(4-CHLORO-2-FLUORO-3-METHOXYPHENYL) PYRIDINE-2-CARBOXYLIC ACID OR DERIVATIVES THEREOF IN VINEYARDS OR PERENNIAL CROPS” (Corteva Agriscience LLC, priority 2013, published 2022)",
  "type_in_all_cases": "in vivo",
  "key": {"[1]": {"system": "AMARE (Amaranthus retroflexus, redroot pigweed)", "assay": "Field trial, post-emergence directed dormant application (December), California vineyards: visual weed control", "text": "(§1) As used herein, selective pre- and post-emergence control of undesirable vegetation means preventing, reducing, killing, or otherwise adversely modifying the development of the undesirable vegetation in the presence of crop plants with limited adverse effect on the crop plants. For example, a broadleaf weed control of 80% (rated visually) with crop injury of less than or equal to 20% (rated visually) would constitute selective control. In some embodiments the adverse effect on crop plants is limited to less than 10% visually rated crop injury. Visual crop injury is a composite rating accounting for all phytotoxic effects including chlorosis, necrosis, growth inhibition, epinasty, delays in maturity and seed or fruit deformity. Visual weed control is a composite rating accounting for reductions in pest plant biomass and/or stand reduction.\n(§2) Small plot research experiments were conducted in Fresno, Calif., USA to evaluate the pre-emergence and post-emergence herbicidal weed control activity and the vines crop tolerance to pre-emergence and post-emergence application of Compound I and Compound II to the weeds. Application water volume of 100 to 187 liters per hectare (L/ha) was used for all experiments. All treatments were applied with a standard small plot carbon dioxide (CO2) backpack sprayer. All treatments were tank-mixed with Crop Oil Concentrate (COC), a well known adjuvant, at 2.34 L/ha. Experimental emulsifiable concentrate (EC) formulations were used for Compounds I and II. The dimethylammonium (DMA) salt of glyphosate was used in all trials. Pindar® GT is a commercial formulation containing a pre-mix of penoxsulam+oxyfluorfen (10+476 grams of active ingredient per liter (g ai/L), respectively). Vine crop stage was dormant (no leaves on the vines during the winter) or early spring growth at the time of Compound I or Compound II application. Generally, weeds were not emerged for the pre-emergence treatments or were at the two to six-leaf stage at the time of the post-emergence herbicide application.\n(§3) Tables 1, 2 and 6 provide weed control results from pre-emergence applications of Compounds I and/or II prior to weed emergence; Tables 4, 7 and 8 provide weed control results from post-emergence applications of Compounds I and/or II applied to actively growing weeds; Tables 3 and 5 provide vine response data from pre-emergence and post-emergence applications of Compound I respectively."}, "[2]": {"system": "CHEAL (Chenopodium album, common lambsquarters)", "assay": "Field trial, post-emergence directed dormant application (December), California vineyards: visual weed control", "text": "as §1, §2, §3"}, "[3]": {"system": "AMSIN (Amsinckia intermedia, coast fiddleneck)", "assay": "Field trial, post-emergence directed dormant application (December), California vineyards: visual weed control", "text": "as §1, §2, §3"}, "[4]": {"system": "CAPBP (Capsella bursa-pastoris, Shepherd's purse)", "assay": "Field trial, post-emergence directed dormant application (December), California vineyards: visual weed control", "text": "as §1, §2, §3"}, "[5]": {"system": "IPOSS (Ipomoea spp, morningglory)", "assay": "Field trial, post-emergence directed dormant application (December), California vineyards: visual weed control", "text": "as §1, §2, §3"}, "[6]": {"system": "CLNCM (Calandrinia ciliata, rock purslane)", "assay": "Field trial, pre-emergence application (February), California vineyards: visual weed control", "text": "as §1, §2, §3"}, "[7]": {"system": "AMSIN (Amsinckia intermedia, coast fiddleneck)", "assay": "Field trial, pre-emergence application (February), California vineyards: visual weed control", "text": "as §1, §2, §3"}, "[8]": {"system": "CAPBP (Capsella bursa-pastoris, Shepherd's purse)", "assay": "Field trial, pre-emergence application (February), California vineyards: visual weed control", "text": "as §1, §2, §3"}, "[9]": {"system": "VITSS (Vitis spp, grape)", "assay": "Field trial, soil-applied dormant application (December), California vineyards: vine injury and growth response", "conditions": "applied to the soil", "text": "as §1, §2, §3"}},
  "data": [
    {"compound": "COC(=O)c1nc(-c2ccc(Cl)c(OC)c2F)cc(N)c1Cl", "note": "[I—Me, methyl 4-amino-3-chloro-6-(4-chloro-2-fluoro-3-methoxyphenyl)pyridine-2-carboxylate]", "values": [
      {"measurement": "% Visual Control 57 DAA AMARE", "setting": "[1]; 2.5 g ae/ha", "value": 95, "unit": "%"},
      {"measurement": "% Visual Control 57 DAA AMARE", "setting": "[1]; 5 g ae/ha", "value": 96.7, "unit": "%"},
      {"measurement": "% Visual Control 57 DAA AMARE", "setting": "[1]; 10 g ae/ha", "value": 100, "unit": "%"},
      {"measurement": "% Visual Control 57 DAA CHEAL", "setting": "[2]; 2.5 g ae/ha", "value": 100, "unit": "%"},
      {"measurement": "% Visual Control 57 DAA CHEAL", "setting": "[2]; 5 g ae/ha", "value": 96.7, "unit": "%"},
      {"measurement": "% Visual Control 57 DAA CHEAL", "setting": "[2]; 10 g ae/ha", "value": 100, "unit": "%"},
      {"measurement": "% Visual Control 57 DAA AMSIN", "setting": "[3]; 2.5 g ae/ha", "value": 38.3, "unit": "%"},
      {"measurement": "% Visual Control 57 DAA AMSIN", "setting": "[3]; 5 g ae/ha", "value": 76.7, "unit": "%"},
      {"measurement": "% Visual Control 57 DAA AMSIN", "setting": "[3]; 10 g ae/ha", "value": 97.3, "unit": "%"},
      {"measurement": "% Visual Control 57 DAA CAPBP", "setting": "[4]; 2.5 g ae/ha", "value": 91.7, "unit": "%"},
      {"measurement": "% Visual Control 57 DAA CAPBP", "setting": "[4]; 5 g ae/ha", "value": 99.3, "unit": "%"},
      {"measurement": "% Visual Control 57 DAA CAPBP", "setting": "[4]; 10 g ae/ha", "value": 100, "unit": "%"},
      {"measurement": "% Visual Control 57 DAA IPOSS", "setting": "[5]; 2.5 g ae/ha", "value": 57.8, "unit": "%"},
      {"measurement": "% Visual Control 57 DAA IPOSS", "setting": "[5]; 5 g ae/ha", "value": 65, "unit": "%"},
      {"measurement": "% Visual Control 57 DAA IPOSS", "setting": "[5]; 10 g ae/ha", "value": 66.7, "unit": "%"},
      {"measurement": "% Visual Control 48 DAA CLNCM", "setting": "[6]; 2.5 g ae/ha", "value": 27.6, "unit": "%"},
      {"measurement": "% Visual Control 48 DAA CLNCM", "setting": "[6]; 5 g ae/ha", "value": 43.3, "unit": "%"},
      {"measurement": "% Visual Control 48 DAA CLNCM", "setting": "[6]; 10 g ae/ha", "value": 86.7, "unit": "%"},
      {"measurement": "% Visual Control 48 DAA AMSIN", "setting": "[7]; 2.5 g ae/ha", "value": 25, "unit": "%"},
      {"measurement": "% Visual Control 48 DAA AMSIN", "setting": "[7]; 5 g ae/ha", "value": 43.3, "unit": "%"},
      {"measurement": "% Visual Control 48 DAA AMSIN", "setting": "[7]; 10 g ae/ha", "value": 36.7, "unit": "%"},
      {"measurement": "% Visual Control 48 DAA CAPBP", "setting": "[8]; 2.5 g ae/ha", "value": 50, "unit": "%"},
      {"measurement": "% Visual Control 48 DAA CAPBP", "setting": "[8]; 5 g ae/ha", "value": 76.7, "unit": "%"},
      {"measurement": "% Visual Control 48 DAA CAPBP", "setting": "[8]; 10 g ae/ha", "value": 90, "unit": "%"},
      {"measurement": "VITSS % Visual Injury 124 DAA", "setting": "[9]; 10 g ae/ha", "value": 0, "unit": "%"},
      {"measurement": "VITSS % Visual Injury 184 DAA", "setting": "[9]; 10 g ae/ha", "value": 15, "unit": "%"},
      {"measurement": "VITSS Branch Length (cm) 184 DAA", "setting": "[9]; 10 g ae/ha", "value": 187, "unit": "cm"},
      {"measurement": "VITSS Internode Length (cm) 184 DAA", "setting": "[9]; 10 g ae/ha", "value": 7, "unit": "cm"},
      {"measurement": "VITSS Yield (Lbs) 236 DAA", "setting": "[9]; 10 g ae/ha", "value": 71, "unit": "Lbs"},
      {"measurement": "VITSS % Visual Injury 124 DAA", "setting": "[9]; 20 g ae/ha", "value": 0, "unit": "%"},
      {"measurement": "VITSS % Visual Injury 184 DAA", "setting": "[9]; 20 g ae/ha", "value": 18, "unit": "%"},
      {"measurement": "VITSS Branch Length (cm) 184 DAA", "setting": "[9]; 20 g ae/ha", "value": 172, "unit": "cm"},
      {"measurement": "VITSS Internode Length (cm) 184 DAA", "setting": "[9]; 20 g ae/ha", "value": 7, "unit": "cm"},
      {"measurement": "VITSS Yield (Lbs) 236 DAA", "setting": "[9]; 20 g ae/ha", "value": 63, "unit": "Lbs"},
      {"measurement": "VITSS % Visual Injury 124 DAA", "setting": "[9]; 40 g ae/ha", "value": 0, "unit": "%"},
      {"measurement": "VITSS % Visual Injury 184 DAA", "setting": "[9]; 40 g ae/ha", "value": 37, "unit": "%"},
      {"measurement": "VITSS Branch Length (cm) 184 DAA", "setting": "[9]; 40 g ae/ha", "value": 125, "unit": "cm"},
      {"measurement": "VITSS Internode Length (cm) 184 DAA", "setting": "[9]; 40 g ae/ha", "value": 6, "unit": "cm"},
      {"measurement": "VITSS Yield (Lbs) 236 DAA", "setting": "[9]; 40 g ae/ha", "value": 31, "unit": "Lbs"}
    ]}
  ]
}
